Results taken from patent US4400510A, “A-32256 Phenazine antibiotic” (Eli Lilly and Company, priority 1981, dated 1983).
Values after ≈ are worked out from the molar mass of the structure shown. Like-named read-outs stand apart in the source and are kept apart here.

Assays:
[1] = tested on: Peptococcus constellatus; assay: agar-dilution MIC vs. Peptococcus and Peptostreptococcus species; format: cell-based; conditions: Pc. constellatus 1468; Table 9
Protocol: (§1) The agar-dilution procedure described by the International Collaborative Study (ICS) group was used to determine MIC values.
(§2) The MIC values were determined by the agar-dilution method, and are recorded in Table 9, which follows.

[2] = tested on: Peptococcus prevoti; assay: as above; format: cell-based; conditions: Table 9
Protocol: as §1, §2

[3] = tested on: Peptococcus magnus; assay: as above; format: cell-based; conditions: Table 9
Protocol: as §1, §2

[4] = tested on: Peptostreptococcus anaerobius; assay: as above; format: cell-based; conditions: Table 9
Protocol: as §1, §2

[5] = tested on: Peptostreptococcus intermedius; assay: as above; format: cell-based; conditions: Table 9
Protocol: as §1, §2

[6] = tested on: Peptococcus asaccharolyticus; assay: as above; format: cell-based; conditions: Table 9
Protocol: as §1, §2

[7] = tested on: Staphylococcus aureus; assay: disc-plate screening procedure, zone of inhibition
[8] = tested on: Peptostreptococcus intermedius; assay: agar-dilution MIC vs. anaerobic bacteria; format: cell-based; conditions: strain 1264, Table 6
[9] = tested on: Streptococcus pneumoniae; assay: disc-plate screening procedure, zone of inhibition; conditions: read-out: Zone Diameter
[10] = tested on: Eubacterium aerofaciens; assay: agar-dilution MIC vs. anaerobic bacteria; format: cell-based; conditions: strain 1235; Table 6
[11] = tested on: Bacteroides corrodens; assay: agar-dilution MIC vs. anaerobic bacteria; format: cell-based; conditions: Eikenella corrodens; strain 1874; Table 6
[12] = tested on: mosquito; assay: mosquito larvacide activity; format: in vivo; conditions: application rate of about 20 ppm
Source text: Antibiotic A-32256 is also active as a mosquito larvacide at an application rate of about 20 ppm.

[13] = potentiometric titration; format: physicochemical; conditions: 66% dimethylformamide in water, initial pH 4.1
Protocol: Antibiotic A-32256 is a green, crystalline solid having a melting point of about 196°-198° C. The antibiotic has a molecular weight of 402, as determined by electron-impact mass spectrometry, and an approximate elemental analysis as follows: 68.71% carbon, 4.48% hydrogen, 6.93% nitrogen, and 19.21% oxygen. Based on elemental analysis and molecular weight, an empirical formula of C23 H18 N2 O5 is assigned to antibiotic A-32256. […] Antibiotic A-32256 has specific rotation of [α]D^25 +5° (c 0.96, chloroform).

[14] = tested on: Fusobacterium symbiosum; assay: agar-dilution MIC vs. anaerobic bacteria; format: cell-based; conditions: strain 1470; Table 6
[15] = tested on: Trichomonas vaginalis; assay: broth dilution assay, antitrichomonal activity; format: cell-based; conditions: in vitro
[16] = tested on: Streptococcus faecalis; assay: agar-dilution screening procedure, MIC; format: cell-based; conditions: Enterococcus faecalis, S. faecalis X66
Protocol: as §1
(§3) The results obtained from tests of antibiotic A-32256 in the agar-dilution screening procedure are recorded in Table 5, which follows.

[17] = tested on: Erwinia amylovora; assay: agar-dilution screening procedure, MIC; format: cell-based
Protocol: as §1, §3

[18] = tested on: Staphylococcus aureus; assay: agar-dilution screening procedure, MIC; format: cell-based
Protocol: as §1, §3

[19] = tested on: Bacteroides melanogenicus; assay: agar-dilution MIC vs. anaerobic bacteria; format: cell-based; conditions: Table 6
[20] = tested on: Streptococcus sp. (Group D); assay: disc-plate screening procedure, zone of inhibition; conditions: read-out: Zone Diameter
[21] = tested on: Bacteroides fragilis; assay: agar-dilution MIC vs. anaerobic bacteria; format: cell-based; conditions: Table 6
[22] = tested on: Peptococcus asaccharolyticus; assay: agar-dilution MIC vs. anaerobic bacteria; format: cell-based; conditions: strain 1302; Table 6
[23] = tested on: Propionibacterium acnes; assay: agar-dilution MIC against Propionibacterium acnes; format: cell-based; conditions: Cutibacterium acnes, Table 7
Source text: as §1
Antibiotic A-32256 is also active against a genus of anaerobic bacteria identified as Propionibacterium acnes, the MIC values being determined by the agar-dilution method, and set forth in Table 7, which follows.

[24] = tested on: Bacteroides vulgatis; assay: agar-dilution MIC vs. anaerobic bacteria; format: cell-based; conditions: strain 1211; Table 6
[25] = tested on: Peptostreptococcus anaerobius; assay: agar-dilution MIC vs. anaerobic bacteria; format: cell-based; conditions: strain 1428, Table 6
[26] = tested on: Streptococcus pyogenes; assay: disc-plate screening procedure, zone of inhibition; conditions: read-out: Zone Diameter
[27] = tested on: B. vulgatis; assay: agar-dilution MIC vs. Bacteroides species; format: cell-based; conditions: B. vulgatis 1563; 24 hours; Table 8
Protocol: as §1
The MIC values were determined by the agar-dilution method, the endpoints being read 24 hours after incubation, and are recorded in Table 8, which follows.

Cc1cccc(O)c1C(=O)OC(C)c1cccc2nc3c(C(=O)O)cccc3nc12 (centres unmarked) [Antibiotic A-32256, 6-[1-[(2-hydroxy-6-methylbenzoyl)oxy]-ethyl]-1-phenazinecarboxylic acid]
MIC [1]: 8 µg/mL (≈ 19.9 µM) | MIC ([2]; Pc. prevoti 1281): 2 µg/mL (≈ 4.97 µM) | MIC ([2]; Pc. prevoti 1293): 16 µg/mL (≈ 39.8 µM) | MIC ([2]; Pc. prevoti 1407): 2 µg/mL (≈ 4.97 µM) | MIC ([3]; Pc. magnus 1401): 2 µg/mL (≈ 4.97 µM) | MIC ([3]; Pc. magnus 1421): 0.5 µg/mL (≈ 1.24 µM) | MIC ([3]; Pc. magnus 1477): 0.5 µg/mL (≈ 1.24 µM) | MIC ([4]; Peptostreptococcus anaerobius, Ps. anaerobius 1428, read-out: MIC): ≤ 0.125 µg/mL | MIC ([4]; Ps. anaerobius 8): 2 µg/mL (≈ 4.97 µM) | MIC ([4]; Ps. anaerobius 52): 8 µg/mL (≈ 19.9 µM) | MIC ([4]; Ps. anaerobius 59): 0.5 µg/mL (≈ 1.24 µM) | MIC ([4]; Ps. anaerobius 1418): 0.25 µg/mL (≈ 0.621 µM) | MIC ([4]; Ps. anaerobius 1451): 0.5 µg/mL (≈ 1.24 µM) | MIC ([4]; Ps. anaerobius 1477): 8 µg/mL (≈ 19.9 µM) | MIC ([5]; Ps. intermedius 1264): 2 µg/mL (≈ 4.97 µM) | MIC ([5]; Ps. intermedius 1524, read-out: MIC): ≤ 0.125 µg/mL | MIC ([5]; Ps. intermedius 1624): 8 µg/mL (≈ 19.9 µM) | MIC ([6]; Pc. asaccharolyticus 1302): 2 µg/mL (≈ 4.97 µM) | MIC ([6]; Pc. asaccharolyticus 1344): 2 µg/mL (≈ 4.97 µM) | zone of inhibition at 30 µg/disc ([7]; read-out: Zone Diameter, S. aureus 3055, benzylpenicillin-susceptible, 30 mcg/disc): 23 mm | zone of inhibition at 300 µg/disc ([7]; read-out: Zone Diameter, S. aureus 3055, benzylpenicillin-susceptible, 300 mcg/disc): 26.2 mm | zone of inhibition at 30 µg/disc ([7]; read-out: Zone Diameter, S. aureus 3074, benzylpenicillin-resistant, 30 mcg/disc): 10 mm | zone of inhibition at 300 µg/disc ([7]; read-out: Zone Diameter, S. aureus 3074, benzylpenicillin-resistant, 300 mcg/disc): 12.2 mm | zone of inhibition at 30 µg/disc ([7]; read-out: Zone Diameter, S. aureus 3130, methicillin-resistant, 30 mcg/disc): 25.8 mm | zone of inhibition at 300 µg/disc ([7]; read-out: Zone Diameter, S. aureus 3130, methicillin-resistant, 300 mcg/disc): 30 mm | MIC [8]: ≤ 0.5 µg/mL | zone of inhibition at 30 µg/disc [9]: 14 mm | zone of inhibition at 300 µg/disc [9]: 16 mm | MIC [10]: 2 µg/mL (≈ 4.97 µM) | MIC [11]: ≤ 0.5 µg/mL | mosquito larvacide activity [12]: active | pKa ([13]; pH 4.1, first titratable group): ~5.02 | pKa ([13]; pH 4.1, second titratable group): ~7.2 | MIC [14]: 2 µg/mL (≈ 4.97 µM) | antitrichomonal activity [15]: has shown antitrichomonal activity in vitro | MIC [16]: 4 µg/mL (≈ 9.94 µM) | MIC [17]: 4 µg/mL (≈ 9.94 µM) | MIC ([18]; S. aureus 3055, benzylpenicillin-susceptible): 1 µg/mL (≈ 2.49 µM) | MIC ([18]; S. aureus 3074, benzylpenicillin-resistant): < 0.5 µg/mL | MIC ([19]; Bacteroides, strain 1856/28, read-out: MIC): 16 µg/mL (≈ 39.8 µM) | MIC ([19]; strain 2736): 16 µg/mL (≈ 39.8 µM) | zone of inhibition at 30 µg/disc [20]: 18.2 mm | zone of inhibition at 300 µg/disc [20]: 21 mm | MIC ([21]; Bacteroides fragilis, strain 111, read-out: MIC): 1 µg/mL (≈ 2.49 µM) | MIC ([21]; Bacteroides fragilis, strain 1936B, read-out: MIC): 1 µg/mL (≈ 2.49 µM) | MIC ([21]; strain 1877): 8 µg/mL (≈ 19.9 µM) | MIC [22]: 16 µg/mL (≈ 39.8 µM) | MIC ([23]; P. acnes 44): ≤ 0.015 µg/mL | MIC ([23]; P. acnes 79): ≤ 0.015 µg/mL | MIC ([23]; P. acnes 101): ≤ 0.015 µg/mL | MIC ([23]; P. acnes 103): ≤ 0.015 µg/mL | MIC ([23]; P. acnes 104): ≤ 0.015 µg/mL | MIC ([23]; P. acnes 105): 0.03 µg/mL (≈ 0.0746 µM) | MIC ([23]; P. acnes 106): 0.06 µg/mL (≈ 0.149 µM) | MIC ([23]; P. acnes 107): ≤ 0.015 µg/mL | MIC ([23]; P. acnes 108): 0.03 µg/mL (≈ 0.0746 µM) | MIC ([23]; P. acnes 5170): ≤ 0.015 µg/mL | MIC ([23]; P. acnes 5176): ≤ 0.015 µg/mL | MIC ([23]; P. acnes 5187): ≤ 0.015 µg/mL | MIC ([23]; P. acnes 5191): 0.06 µg/mL (≈ 0.149 µM) | MIC ([23]; P. acnes 5197): ≤ 0.015 µg/mL | MIC ([23]; P. acnes 5226): ≤ 0.015 µg/mL | MIC ([23]; P. acnes 5227): ≤ 0.015 µg/mL | MIC ([23]; P. acnes 5228): ≤ 0.015 µg/mL | MIC ([23]; P. acnes 5229): 0.03 µg/mL (≈ 0.0746 µM) | MIC ([23]; P. acnes 5246): ≤ 0.015 µg/mL | MIC [24]: 8 µg/mL (≈ 19.9 µM) | MIC [25]: ≤ 0.5 µg/mL | zone of inhibition at 30 µg/disc [26]: 11 mm | zone of inhibition at 300 µg/disc [26]: 13 mm | MIC [27]: 1.0 µg/mL (≈ 2.49 µM)
